Experimental data as given in US4122179A, “Acid addition salts of vincamine and apovincamine” (priority 1976, dated 1978).

Tests used:
vertebral arteria = assay: Cerebral vasodilating activity: hematic flow at the vertebral arteria after i.v. administration; type: in vivo; conditions: i.v. (femoral vein), 5 mg/kg of vincamine/apovincamine, anesthetized dog, 4 animals per compound; 5 mg/kg
Protocol: (§1) For the compounds of the present invention a number of pharmacological and pharmacokinetic tests have been carried out. […] As regards the pharmacological and pharmacodynamic activity, it has been studied on the percent variations of the hematic flow, as recorded at the vertebral arteria in the dog after administration of the tested compounds. As regards the pharmacokinetic tests, the compounds were administered per oral route to the Wistar rat, and the hematic levels at different times from the administration were measured.
The cerebral vasodilating activity was studied in the anestetized dog, by measuring, by means of Statham periarterial electromagnetic flowmeters, the hematic flow at the level of the […] which, in such animal species, constitutes the greatest blood supply to the brain.
The resuls are reported in the TABLE 2 (last column) as the percent variations of the flow measured at the level of the ledt vertebral arteria after the i.v. administration of the several compounds to be tested to groups of 4 animals for each compound. The results also confirm that the compounds of the invention are all endowed with a vasodilating activity at the level of the cerebral circulus, such an action being, for some compounds, much more remarkable than that of vincamine and apovincamine.

[1] = LD50 / acute toxicity, intraperitoneal route; type: in vivo; conditions: i.p.; for Toxicity (Gleason): Gleason class in words, classes not defined
[2] = Hematic levels at different times after oral administration (absorption); type: in vivo, Wistar rat; conditions: 100 mg/kg expressed as vincamine/apovincamine, 5% carboxymethyl cellulose suspension, 100 mg/kg
Protocol: as §1
For the evaluation of the absorption, all the compounds have been orally administered at the dosage of 100 mg/kg, expressed as vincamine and apovincamine, in form of a suspension in a 5% carboxymethyl cellulose solution.
The absorption was determined by evaulating the hematic levels at the following times (minutes) : 0, 30, 120, 240, 480, 10 hours and 12 hours, in order also to assess the time from the administration (max conc.time) the maximum absorption occurred.
The vincamine and apovincamine concentrations were assessed by chromatographic method.
For the evaluation of the prolonged action of the salts and of the adducts of vincamine and apovincamine the following criterium was adopted; as derivatives having a long-acting effect, there are considered those which, 120 minutes after the administration, show hematic levels higher than those obtained with vincamine and apovincamine.

Solubility = type: physicochemical; conditions: qualitative; for solubility in alcohol: alcohol (ethyl alcohol)

## CC[C@]12CCCN3CCc4c(n(c5ccccc45)[C@@](O)(C(=O)OC)C1)[C@@H]32 [Example 7.a, Vincamine 3,5-dihydroxybenzoate]
Vertebral arteria
  % increase (percent variation of hematic flow, left vertebral arteria): 26.3%
[1]
  LD50: 850 mg/kg
  Toxicity (Gleason): modest
[2]
  Max. conc. time: 240 min
Solubility
  solubility in alcohol: insoluble
  solubility in water: insoluble

## CC[C@@]12C=C(C(=O)OC)n3c4c(c5ccccc53)CCN(CCC1)[C@H]42 [Example 7.b, Apovincamine 3,5-dihydroxybenzoate]
Vertebral arteria
  % increase (percent variation of hematic flow, left vertebral arteria): 26.0%
[1]
  LD50: 750 mg/kg
  Toxicity (Gleason): modest
[2]
  Max. conc. time: 240 min
Solubility
  solubility in alcohol: soluble
  solubility in water: insoluble

## CC[C@]12CCCN3CCc4c(n(c5ccccc45)[C@@](O)(C(=O)OC)C1)[C@@H]32 [Example 8.a, Vincamine p-toluensulfonate]
Vertebral arteria
  % increase (percent variation of hematic flow, left vertebral arteria): 25.1%
[1]
  LD50: 1250 mg/kg
  Toxicity (Gleason): light
[2]
  Max. conc. time: 480 min
Solubility
  solubility in alcohol: soluble
  solubility in water: soluble

## CC[C@@]12C=C(C(=O)OC)n3c4c(c5ccccc53)CCN(CCC1)[C@H]42 [Example 8.b, Apovincamine p-toluensulfonate]
Vertebral arteria
  % increase (percent variation of hematic flow, left vertebral arteria): 29.0%
[1]
  LD50: 900 mg/kg
  Toxicity (Gleason): modest
[2]
  Max. conc. time: 480 min
Solubility
  solubility in alcohol: soluble
  solubility in water: insoluble

## CC[C@]12CCCN3CCc4c(n(c5ccccc45)[C@@](O)(C(=O)OC)C1)[C@@H]32 [Example 9.a, Vincamine clofibrate (2-(p-chlorophenoxy)-2-methylpropionate)]
Vertebral arteria
  % increase (percent variation of hematic flow, left vertebral arteria): 22.1%
[1]
  LD50: 900 mg/kg
  Toxicity (Gleason): modest
[2]
  Max. conc. time: 480 min
Solubility
  solubility in alcohol: soluble
  solubility in water: insoluble

## CC[C@@]12C=C(C(=O)OC)n3c4c(c5ccccc53)CCN(CCC1)[C@H]42 [Example 9.b, Apovincamine clofibrate]
Vertebral arteria
  % increase (percent variation of hematic flow, left vertebral arteria): 28.3%
[1]
  LD50: 800 mg/kg
  Toxicity (Gleason): light
[2]
  Max. conc. time: 480 min
Solubility
  solubility in alcohol: soluble
  solubility in water: insoluble

## CC[C@]12CCCN3CCc4c(n(c5ccccc45)[C@@](O)(C(=O)OC)C1)[C@@H]32 [Example 10.a]
Vertebral arteria
  % increase (percent variation of hematic flow, left vertebral arteria): 27.9%
[1]
  LD50: 1300 mg/kg
  Toxicity (Gleason): light
[2]
  Max. conc. time: 240 min
Solubility
  solubility in alcohol: insoluble
  solubility in water: insoluble

## CC[C@@]12C=C(C(=O)OC)n3c4c(c5ccccc53)CCN(CCC1)[C@H]42 [Example 10.b, Apovincamine pivalate]
Vertebral arteria
  % increase (percent variation of hematic flow, left vertebral arteria): 31.4%
[1]
  LD50: 750 mg/kg
  Toxicity (Gleason): modest
[2]
  Max. conc. time: 480 min
Solubility
  solubility in alcohol: soluble
  solubility in water: insoluble

## CC[C@]12CCCN3CCc4c(n(c5ccccc45)[C@@](O)(C(=O)OC)C1)[C@@H]32 [Example 11.a, Vincamine 4-acetamidobutyrate]
Vertebral arteria
  % increase (percent variation of hematic flow, left vertebral arteria): 29.3%
[1]
  LD50: 700 mg/kg
  Toxicity (Gleason): modest
[2]
  Max. conc. time: 480 min
Solubility
  solubility in alcohol: insoluble
  solubility in water: insoluble

## CC[C@@]12C=C(C(=O)OC)n3c4c(c5ccccc53)CCN(CCC1)[C@H]42 [Example 11.b, Apovincamine 4-acetamidobutyrate]
Vertebral arteria
  % increase (percent variation of hematic flow, left vertebral arteria): 33.0%
[1]
  LD50: 1500 mg/kg
  Toxicity (Gleason): light
[2]
  Max. conc. time: 480 min
Solubility
  solubility in alcohol: insoluble
  solubility in water: insoluble

## CC[C@]12CCCN3CCc4c(n(c5ccccc45)[C@@](O)(C(=O)OC)C1)[C@@H]32 [Example 12.a, Vincamine furoate (furan-2-carboxylate)]
Vertebral arteria
  % increase (percent variation of hematic flow, left vertebral arteria): 24.8%
[1]
  LD50: 800 mg/kg
  Toxicity (Gleason): modest
[2]
  Max. conc. time: 120 min
Solubility
  solubility in alcohol: insoluble
  solubility in water: insoluble

## CC[C@]12CCCN3CCc4c(n(c5ccccc45)[C@@](O)(C(=O)OC)C1)[C@@H]32 [Example 13.a, Vincamine D(+)-camphorsulfonate]
Vertebral arteria
  % increase (percent variation of hematic flow, left vertebral arteria): 30.1%
[1]
  LD50: 1350 mg/kg
  Toxicity (Gleason): light
[2]
  Max. conc. time: 60 min
Solubility
  solubility in alcohol: poorly soluble
  solubility in the common (organic) solvents: insoluble
  solubility in water: soluble

## CC[C@]12CCCN3CCc4c(n(c5ccccc45)[C@@](O)(C(=O)OC)C1)[C@@H]32 [Example 14.a, Vincamine L(+)-O,O-dibenzoyltartrate]
Vertebral arteria
  % increase (percent variation of hematic flow, left vertebral arteria): 29.6%
[1]
  LD50: 950 mg/kg
  Toxicity (Gleason): modest
[2]
  Max. conc. time: 60 min
Solubility
  solubility in alcohol: poorly soluble
  solubility in the common (organic) solvents: insoluble
  solubility in water: poorly soluble

## CC[C@@]12C=C(C(=O)OC)n3c4c(c5ccccc53)CCN(CCC1)[C@H]42 [Example 14.b, Apovincamine L(+)-O,O-dibenzoyltartrate]
Vertebral arteria
  % increase (percent variation of hematic flow, left vertebral arteria): 31.0%
[1]
  LD50: 1500 mg/kg
  Toxicity (Gleason): light
[2]
  Max. conc. time: 120 min
Solubility
  solubility in alcohol: soluble

## CC[C@@]12C=C(C(=O)OC)n3c4c(c5ccccc53)CCN(CCC1)[C@H]42 [Example 15.b, Apovincamine nicotinate]
Vertebral arteria
  % increase (percent variation of hematic flow, left vertebral arteria): 28.3%
[1]
  LD50: 750 mg/kg
  Toxicity (Gleason): modest
[2]
  Max. conc. time: 60 min
Solubility
  solubility in alcohol: insoluble
  solubility in water: insoluble

## CC[C@]12CCCN3CCc4c(n(c5ccccc45)[C@@](O)(C(=O)OC)C1)[C@@H]32 [Example 16.a, Vincamine acetylsalicylate]
Vertebral arteria
  % increase (percent variation of hematic flow, left vertebral arteria): 31.7%
[1]
  LD50: 900 mg/kg
  Toxicity (Gleason): modest
[2]
  Max. conc. time: 20 min
Solubility
  solubility in the common (organic) solvents: poorly soluble

## CC[C@@]12C=C(C(=O)OC)n3c4c(c5ccccc53)CCN(CCC1)[C@H]42 [Example 16.b, Apovincamine acetylsalicylate]
Vertebral arteria
  % increase (percent variation of hematic flow, left vertebral arteria): 40.1%
[1]
  LD50: 750 mg/kg
  Toxicity (Gleason): modest
[2]
  Max. conc. time: 60 min
Solubility
  solubility in alcohol: soluble
  solubility in water: very little soluble

## CC[C@]12CCCN3CCc4c(n(c5ccccc45)[C@@](O)(C(=O)OC)C1)[C@@H]32 [Example 18.a, Vincamine enanthate]
Vertebral arteria
  % increase (percent variation of hematic flow, left vertebral arteria): 27.7%
[1]
  LD50: 750 mg/kg
  Toxicity (Gleason): modest
[2]
  Max. conc. time: 60 min
Solubility
  solubility in the common (organic) solvents: insoluble

## CC[C@@]12C=C(C(=O)OC)n3c4c(c5ccccc53)CCN(CCC1)[C@H]42 [Example 18.b]
Vertebral arteria
  % increase (percent variation of hematic flow, left vertebral arteria): 33.1%
[1]
  LD50: 1500 mg/kg
  Toxicity (Gleason): light
[2]
  Max. conc. time: 120 min
Solubility
  solubility in alcohol: insoluble
  solubility in water: insoluble

## CC[C@]12CCCN3CCc4c(n(c5ccccc45)[C@@](O)(C(=O)OC)C1)[C@@H]32 [Example 19.a, Vincamine p-chlorophenoxyacetate]
Vertebral arteria
  % increase (percent variation of hematic flow, left vertebral arteria): 22.0%
[1]
  LD50: 750 mg/kg
  Toxicity (Gleason): modest
[2]
  Max. conc. time: 480 min
Solubility
  solubility in alcohol: soluble
  solubility in the common (organic) solvents: insoluble
  solubility in water: insoluble

## CC[C@@]12C=C(C(=O)OC)n3c4c(c5ccccc53)CCN(CCC1)[C@H]42 [Example 19.b, Apovincamine p-chlorophenoxyacetate]
Vertebral arteria
  % increase (percent variation of hematic flow, left vertebral arteria): 28.4%
[1]
  LD50: 750 mg/kg
  Toxicity (Gleason): modest
[2]
  Max. conc. time: 480 min
Solubility
  solubility in water: insoluble

## CC[C@]12CCCN3CCc4c(n(c5ccccc45)[C@@](O)(C(=O)OC)C1)[C@@H]32 [Example 20.a, Vincamine theophylline-7-acetate]
Vertebral arteria
  % increase (percent variation of hematic flow, left vertebral arteria): 24.5%
[1]
  LD50: 700 mg/kg
  Toxicity (Gleason): modest
[2]
  Max. conc. time: 60 min
Solubility
  solubility in alcohol: soluble
  solubility in the common (organic) solvents: insoluble
  solubility in water: insoluble
